Reference: patent US20090286816A1, “MODULATORS OF METABOLISM AND THE TREATMENT OF DISORDERS RELATED THERETO” (ARENA PHARMACEUTICALS, INC., priority 2006, published 2009)
Like-named read-outs stand apart in the source and are kept apart here.

Tests used:
[1] = Rat dose-range PK study (dose escalation pharmacokinetics); type: in vivo; conditions: for AUC(0-t): male, SD, plasma, PO, read-out: AUC24 hr
Description: Male SD rats (250-300 g) were purchased from Charles River Laboratory; upon receipt, animals were placed under light-dark cycle (6:30 am-6:30 pm lights on). They were allowed ad libitum access to water and 4 pieces of food daily (Purina Meals Rodent Diet, Product Number 5001).
Compound formulations were prepared as following: The IV injection formulation was prepared in 20% hydroxypropyl-beta-cyclodextrin with concentration of 0.667 mg/mL. […] The dosing volume for IV injection was 3 mL/Kg and for PO administration was 10 mL/Kg. Four rats were used for each dose group. […]
All rats (4 rats per group, housed individually) were fasted overnight prior to in-life phase. On the next morning, rats were received an IV (via tail vein injection) injection or gavage dose of compound starting at 8 am (IV) and 9 am (PO). Next, each rat were orbital bled at 0.085, 0.25, 0.5, 1, 2, 4, 6, 8, and 24 hr (IV) or 0.5, 1, 2, 4, 6, 8, and 24 hr (PO) to collect blood samples for PK analysis.
The blood samples were collected via orbital bleeding into tubes containing EDTA, 0.25 mL blood each time. These samples were put on ice and within 2 hours plasma was prepared by centrifugation at 3,000 rpm for 30 min at 4° C. 100 μl of plasma were transferred into a 96-tube box for PK analysis.
Plasma samples were prepared as follows. Two hundred microliters of acetonitrile containing internal standard was added to 100 μL of plasma to precipitate proteins. Samples were centrifuged at 3000 g for 5 minutes and supernatant removed for analysis by LC-MS-MS. Calibration standards and quality control samples were prepared by adding a known volume of standard stock solution (50% methanol, 50% H2O) directly into blank plasma and treated identically to collected plasma samples. Calibration standards were typically prepared in the range of 2.0 ng/mL to 110 μg/mL with linear regression for quantitation. These sample preparation steps were automated using a liquid handling workstation (Tomtec Quadra 96) in the 96-well format. Reversed phase LC-MS-MS analysis was performed using either multiple reaction or selected ion monitoring for detection of characteristic ions for each drug candidate and the internal standard used was propranolol for positive ions or chloramphenicol for negative ions.
Results were calculated by noncompartmental analysis using WinNonlin Pro version 3.1 based on plasma concentration-time profiles for individual animals. Plasma levels were determined as described above and the oral and intravenous area under the concentration vs. time curve (AUC was calculated using the linear trapezoidal rule up to the last measurable concentration and was then extrapolated to infinity) were compared to determine the % bioavailability (% F) by the following formula: Dose (IV)*AUC (oral)/Dose (oral)*AUC (IV).
There may be significant variation within the individual animals and the analytical method and that variation was evidenced by the % CV. AUMC was the first statistical moment of the AUC and was used to calculate the mean residence time (MRT=AUMC/AUC), which was the average time the compound was in the animal. The Cmax represented the maximum concentration observed, the Tmax was the time to reach that maximum concentration and the T1/2 was the calculated terminal half-life of the compound in plasma using the slope of a log concentration vs time plot if there were sufficient elimination phase data points (at least three data points in the terminal phase excluding the Cmax). Systemic clearance (CL=Dose(IV)/AUC(IV)) was the volume of fluid (containing compound) from which compound was removed completely per unit time. Volume of distribution at steady state (Vss=CL*MRT) was the extent of distribution of a drug from the plasma to the tissues at steady state.

Male Sprague Dawley rats = assay: Oral glucose tolerance test (oGTT) in rats; type: in vivo, rat; conditions: fasted male SD rats, p.o. 30 min before dextrose 3 g/kg, mean of six animals, dose of the group not stated (0.3, 3 or 30 mg/kg tested)
Description: Male Sprague Dawley rats (Harlan, San Diego, Calif.) weighing approximately 350-375 g were fasted for 16 hours and randomly grouped (n=6) to receive a RUP3 agonist at 0.3, 3 or 30 mg/kg. Compounds were delivered orally via a gavage needle (p.o., volume 2 mL/kg). At time 0, levels of blood glucose were assessed using a glucometer (Accu-Chek Advantage, Roche Diagnostics), and rats were administered either vehicle (20% hydroxypropyl-beta-cyclodextrin) or test compound. Thirty minutes after administration of test compound, levels of blood glucose were again assessed, and rats were administered dextrose orally at a dose of 3 g/kg. Blood glucose measurements were then taken 30 min, 60 min, and 120 min after this time.

RUP3 receptor [2] = target: T1, RUP3 receptor (Homo sapiens, UniProt Q8TDV5); assay: RUP3 dose response in melanophores (human receptor); type: cell-based
T1 construct: expressed in transfected cells; host or cells: melanophores (cultured per Potenza and Lerner 1992), electroporated
T1 sequence (Q8TDV5 1-335): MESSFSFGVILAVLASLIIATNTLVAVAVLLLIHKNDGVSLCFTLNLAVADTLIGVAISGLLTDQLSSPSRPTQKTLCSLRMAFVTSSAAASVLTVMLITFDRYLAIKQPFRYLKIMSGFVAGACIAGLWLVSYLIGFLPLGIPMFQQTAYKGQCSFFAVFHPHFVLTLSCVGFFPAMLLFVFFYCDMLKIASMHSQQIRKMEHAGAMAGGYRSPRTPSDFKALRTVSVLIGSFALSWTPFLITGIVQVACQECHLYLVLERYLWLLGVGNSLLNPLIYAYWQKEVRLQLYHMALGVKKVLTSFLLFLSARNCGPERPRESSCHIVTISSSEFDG
Description: (§1) Melanophores are maintained in culture as reported by Potenza, M. N. and Lerner, M. R., in Pigment Cell Research, Vol. 5, 372-378, 1992 and transfected with the RUP3 expression vector (pCMV) using electroporation. Following electroporation, the transfected cells are plated into 96 well plates for the assay. The cells are then allowed to grow for 48 hours in order to both recover from the electroporation procedure and attain maximal receptor expression levels. On the assay day, the growth medium on the cells is replaced with serum-free buffer containing 10 nM melatonin. The melatonin acts via an endogenous Gi-coupled GPCR in the melanophores to lower intracellular cAMP levels. In response to lowered cAMP levels, the melanophores translocate their pigment to the center of the cell. The net effect of this is a significant decrease in the absorbance reading of the cell monolayer in the well, measured at […]. After a 1-hour incubation in melatonin, the cells become completely pigment-aggregated. At this point a baseline absorbance reading is collected. Serial dilutions of test compounds are then added to the plate and compounds that stimulate RUP3 produce increases in intracellular cAMP levels. […] The measured increase in absorbance compared to the baseline reading allows one to quantitate the degree of receptor stimulation and plot a dose-response curve.

RUP3 receptor [3] = target: T2, RUP3 receptor (Canis lupus familiaris, UniProt A0A8I3QZL6); assay: RUP3 dose response in melanophores (dog receptor); type: cell-based
T2 sequence (A0A8I3QZL6 1-335): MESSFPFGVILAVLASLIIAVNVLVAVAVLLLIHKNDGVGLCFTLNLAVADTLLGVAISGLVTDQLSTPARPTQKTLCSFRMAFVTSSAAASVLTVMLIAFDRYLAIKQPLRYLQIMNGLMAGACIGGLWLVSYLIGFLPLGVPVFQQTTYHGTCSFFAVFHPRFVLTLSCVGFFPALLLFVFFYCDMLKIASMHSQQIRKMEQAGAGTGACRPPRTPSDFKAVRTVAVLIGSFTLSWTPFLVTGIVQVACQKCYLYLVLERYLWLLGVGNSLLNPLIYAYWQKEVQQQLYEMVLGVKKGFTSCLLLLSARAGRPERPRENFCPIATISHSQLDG
Description: as §1

RUP3 receptor [4] = target: T3, RUP3 receptor (Mus musculus, UniProt Q7TQP3); assay: RUP3 dose response in melanophores (mouse receptor); type: cell-based
T3 construct: expressed in transfected cells; host or cells: melanophores (cultured per Potenza and Lerner 1992), electroporated
T3 sequence (Q7TQP3 1-335): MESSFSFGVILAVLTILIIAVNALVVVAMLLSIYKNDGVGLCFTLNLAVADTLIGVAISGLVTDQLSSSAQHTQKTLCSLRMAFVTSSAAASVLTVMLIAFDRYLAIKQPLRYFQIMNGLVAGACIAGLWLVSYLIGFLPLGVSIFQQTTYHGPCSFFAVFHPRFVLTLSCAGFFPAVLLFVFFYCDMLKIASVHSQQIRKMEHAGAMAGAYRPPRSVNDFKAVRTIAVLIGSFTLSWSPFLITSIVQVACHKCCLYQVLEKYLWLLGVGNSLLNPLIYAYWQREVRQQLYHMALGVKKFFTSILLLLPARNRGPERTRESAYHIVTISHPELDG
Description: as §1

RUP3 receptor [5] = target: T4, RUP3 receptor (Rattus norvegicus, UniProt Q7TQN8); assay: RUP3 dose response in melanophores (rat receptor); type: cell-based
T4 construct: expressed in transfected cells; host or cells: melanophores (cultured per Potenza and Lerner 1992), electroporated
T4 sequence (Q7TQN8 1-468): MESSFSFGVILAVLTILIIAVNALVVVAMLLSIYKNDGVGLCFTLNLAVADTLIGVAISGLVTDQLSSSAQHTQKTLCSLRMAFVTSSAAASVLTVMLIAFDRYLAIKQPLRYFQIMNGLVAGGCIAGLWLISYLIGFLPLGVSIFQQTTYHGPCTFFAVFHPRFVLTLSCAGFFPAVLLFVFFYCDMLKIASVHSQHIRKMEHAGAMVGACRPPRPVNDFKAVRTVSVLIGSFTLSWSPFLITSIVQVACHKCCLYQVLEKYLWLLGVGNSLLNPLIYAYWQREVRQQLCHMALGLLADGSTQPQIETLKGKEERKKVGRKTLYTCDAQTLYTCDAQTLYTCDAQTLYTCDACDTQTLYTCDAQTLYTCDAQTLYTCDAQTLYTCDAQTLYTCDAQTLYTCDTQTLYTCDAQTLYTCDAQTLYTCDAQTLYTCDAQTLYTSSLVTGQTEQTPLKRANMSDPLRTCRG
Description: as §1

SMILES | AUC(0-t) ([1]; dose 3 mg) [ng·h/mL] | AUC(0-t) ([1]; dose 30 mg) [ng·h/mL] | AUC(0-t) ([1]; dose 300 mg) [ng·h/mL] | also measured
COc1c(Nc2ccc(S(C)(=O)=O)nc2C)ncnc1OC1CCN(C(=O)OC(C)C)CC1 [Compound C, 4-[6-(6-Methanesulfonyl-2-methyl-pyridin-3-ylamino)-5-methoxy-pyrimidin-4-yloxy]-piperidine-1-carboxylic acid isopropyl ester] | 14900 | 65900 | 419000 | 
COc1c(Nc2ccc(-n3cncn3)nc2C)ncnc1OC1CCN(C(=O)OC(C)C)CC1 [Compound of Formula (I), 4-[5-Methoxy-6-(2-methyl-6-[1,2,4]triazol-1-yl-pyridin-3-ylamino)-pyrimidin-4-yloxy]-piperidine-1-carboxylic acid isopropyl ester] | 3590 | 79800 | 286000 | mean percent inhibition of glucose excursion (Male Sprague Dawley rats): 60%; EC50 (RUP3 receptor [2]): 2 nM; EC50 (RUP3 receptor [3]): 4 nM; EC50 (RUP3 receptor [4]): 57 nM; EC50 (RUP3 receptor [5]): 81 nM; dose escalation pharmacokinetics (AUC vs dose) ([1]; PO 3, 30, 300 mg/Kg, FIG. 1): essentially linear
COc1c(Nc2ccc(S(C)(=O)=O)nc2C)ncnc1OC1CCN(c2nc(C(C)C)no2)CC1 [Compound G, {6-[1-(3-Isopropyl-[1,2,4]oxadiazol-5-yl)-piperidin-4-yloxy]-5-methoxy-pyrimidin-4-yl}-(6-methanesulfonyl-2-methyl-pyridin-3-yl)-amine] | 1660 | 6470 | 33800 | 
Cc1c(Nc2ccc(S(C)(=O)=O)cc2F)ncnc1OC1CCN(c2nc(C(C)C)no2)CC1 [Compound B, (2-Fluoro-4-methanesulfonyl-phenyl)-{6-[1-(3-isopropyl-[1,2,4]oxadiazol-5-yl)-piperidin-4-yloxy]-5-methyl-pyrimidin-4-yl}-amine] | 2120 | 5990 | 11000 | 
CC(C)OC(=O)N1CCC(Oc2ncnc3c2cnn3-c2ccc(S(C)(=O)=O)cc2F)CC1 [Compound A, 4-[1-(2-Fluoro-4-methanesulfonyl-phenyl)-1H-pyrazolo[3,4-d]pyrimidin-4-yloxy]-piperidine-1-carboxylic acid isopropyl ester] |  | 9930 | 97000 | AUC(0-t) ([1]; dose 10 mg): 2590 ng·h/mL; AUC(0-t) ([1]; dose 100 mg): 133000 ng·h/mL; AUC(0-t) ([1]; dose 1000 mg): 377000 ng·h/mL
Cc1nc(S(C)(=O)=O)ccc1Nc1ncnc(OC2CCN(C(=O)OC(C)C)CC2)c1C [Compound E, 4-[6-(6-methanesulfonyl-2-methyl-pyridin-3-ylamino)-5-methyl-pyrimidin-4-yloxy]-piperidine-1-carboxylic acid isopropyl ester] | 4730 | 55900 | 515000 | 
COc1c(Nc2cnc(S(C)(=O)=O)cc2C)ncnc1OC1CCN(C(=O)OC(C)C)CC1 [Compound D, 4-[6-(6-Methanesulfonyl-4-methyl-pyridin-3-ylamino)-5-methoxypyrimidin-4-yloxy]-piperidine-1-carboxylic acid isopropyl ester] | 5600 | 29400 | 54700 | 
